Tested on: STAT3 phosphorylation and STAT3 regulated genes (survivin, cyclin D1)
Assay: Western immunoblotting of MDA-MB-468 cells (P-STAT3, survivin, cyclin D1)
Type: cell-based, human
Settings: 100 μM overnight, Western blot
Method: To assess the ability of lead γ-AA peptides to modulate the expression of STAT3 regulated genes, Western immunoblotting was carried out to determine the effect of γ-AA peptides on the expression levels of survivin and cyclin D1. Briefly, Western blots were prepared using cells that were harvested and lysed for 30 min on ice with occasional vortexing in 150 mM Hepes, pH 7.5, 150 mM NaCl, 1 mM EDTA, 0.5% NP-40, 10% glycerol, 5 mM NaF, 1 mM DTT, 1 mM PMSF, 2 mM Na3VO4, and 5 μg/ml leupeptin. Proteins readings were done using the Bradford protein assay, and equal amounts of protein for each sample were loaded into the wells of SDS-PAGE gels. After separation, proteins were transferred to nitrocellulose and Western blots were performed as previously described (Zhang, et al., A Novel Inhibitor of STAT3 Homodimerization Selectively Suppresses STAT3 Activity and Malignant Transformation. Cancer Research 2013, 73, 1922-1933).

Substance: S3I-1757
- STAT3 phosphorylation (P-STAT3): blocked STAT3 phosphorylation

From patent publication US10351596B2, “γ-AA-peptide STAT3/DNA inhibitors and methods of use” (H. Lee Moffitt Cancer Center and Research Institute, Inc., priority 2014, dated 2019)
